According to patent US20240199558A1, “2,4,6-TRISUBSTITUTED 1,3,5-TRIAZINES AS MODULATORS OF CX3CR1” (ASTRAZENECA AB, priority 2022, published 2024):

Target: CX3CR1 (Homo sapiens (Human), UniProt P49238)
Test: hCX3CR1 [3H]-AZD8797 competitive binding assay (filter)
Conditions: CHO-hCX3CR1 membranes, 2 nM [3H]-AZD8797
In short: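 CHO-hCX3CR1 membranes (9 μg/well) were incubated 2 h at room temperature with 2 nM [3H]-AZD8797 and varying competitor concentrations. Buffer: 25 mM HEPES pH 7.4, 10 mM MgCl2, 1 mM CaCl2, 0.5% BSA, 1% DMSO. Bound ligand was collected by vacuum filtration, washed in ice-cold buffer with 500 mM NaCl, and counted by scintillation.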

Sequence of CX3CR1 (P49238 whole entry): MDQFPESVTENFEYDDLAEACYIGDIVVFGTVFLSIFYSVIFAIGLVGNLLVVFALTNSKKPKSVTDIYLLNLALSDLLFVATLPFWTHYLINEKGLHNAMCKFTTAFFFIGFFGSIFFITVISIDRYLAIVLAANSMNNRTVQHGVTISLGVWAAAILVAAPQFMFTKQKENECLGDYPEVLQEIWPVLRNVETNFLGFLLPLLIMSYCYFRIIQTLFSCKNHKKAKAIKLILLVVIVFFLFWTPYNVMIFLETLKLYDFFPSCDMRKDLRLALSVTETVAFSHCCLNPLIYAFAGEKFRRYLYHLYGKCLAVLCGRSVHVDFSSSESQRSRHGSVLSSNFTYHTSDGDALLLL

SMILES | IC50 [nM]
CC(C)C[C@H](CO)Nc1nc(CC(C)c2cccc(C3COC3)c2)nc(NS(C)(=O)=O)n1 (stereo partly drawn) [Example 105, N-(4-(((R)-1-Hydroxy-4-methylpentan-2-yl)amino)-6-(2-(3-(oxetan-3-yl)phenyl)propyl)-1,3,5-triazin-2-yl)methanesulfonamide] | 123
CC(C)C[C@H](CO)Nc1nc(CC(C)c2ccc(-n3ccnn3)cc2)nc(NS(C)(=O)=O)n1 (stereo partly drawn) [Example 64, N-(4-(2-(4-(1H-1,2,3-Triazol-1-yl)phenyl)propyl)-6-(((R)-1-hydroxy-4-methylpentan-2-yl)amino)-1,3,5-triazin-2-yl)methanesulfonamide] | 302
COc1ccc([C@H](C)Cc2nc(N[C@@H](CO)CC(C)C)nc(NS(C)(=O)=O)n2)cc1F (single isomer, unassigned) [Example 19, N-(4-((R*)-2-(3-Fluoro-4-methoxyphenyl)propyl)-6-(((R)-1-hydroxy-4-methylpentan-2-yl)amino)-1,3,5-triazin-2-yl)methanesulfonamide] | 33
COc1cc(F)ccc1C(C)Cc1nc(N[C@@H](CO)CC(C)C)nc(NS(C)(=O)=O)n1 (stereo partly drawn) [Example 162, N-(4-(2-(4-Fluoro-2-methoxyphenyl)propyl)-6-(((R)-1-hydroxy-4-methylpentan-2-yl)amino)-1,3,5-triazin-2-yl)methanesulfonamide] | 1320
CC(C)C[C@H](CO)Nc1nc(C[C@@H](C)c2cc(F)c(F)c(F)c2)nc(NS(C)(=O)=O)n1 (single isomer, unassigned) [Example 22, N-(4-(((R)-1-Hydroxy-4-methylpentan-2-yl)amino)-6-((R*)-2-(3,4,5-trifluorophenyl)propyl)-1,3,5-triazin-2-yl)methanesulfonamide] | 257

Further compounds by falling IC50, results first:

IC50 [nM] | SMILES
354 | CC(C)C[C@H](CO)Nc1nc(CC(C)c2ccc(OC(F)F)nc2)nc(NS(C)(=O)=O)n1 (stereo partly drawn) [Example 127, N-(4-(2-(6-(Difluoromethoxy)pyridin-3-yl)propyl)-6-(((R)-1-hydroxy-4-methylpentan-2-yl)amino)-1,3,5-triazin-2-yl)methanesulfonamide]
173 | CC(C)C[C@H](CO)Nc1nc(CC(C)c2ccc(C#N)c(F)c2)nc(NS(C)(=O)=O)n1 (stereo partly drawn) [Example 141, N-(4-(2-(4-Cyano-3-fluorophenyl)propyl)-6-(((R)-1-hydroxy-4-methylpentan-2-yl)amino)-1,3,5-triazin-2-yl)methanesulfonamide]
119 | CC(C)C[C@H](CO)Nc1nc(CC(C)c2ccc(CCN3CCOCC3)cc2)nc(NS(C)(=O)=O)n1 (stereo partly drawn) [Example 138, N-(4-(((R)-1-Hydroxy-4-methylpentan-2-yl)amino)-6-(2-(4-(2-morpholinoethyl)phenyl)propyl)-1,3,5-triazin-2-yl)methanesulfonamide]
84 | CC(C)C[C@H](CO)Nc1nc(CC(C)c2cccc3c(=O)n(C)cnc23)nc(NS(C)(=O)=O)n1 (stereo partly drawn) [Example 109, N-(4-(((R)-1-Hydroxy-4-methylpentan-2-yl)amino)-6-(2-(3-methyl-4-oxo-3,4-dihydroquinazolin-8-yl)propyl)-1,3,5-triazin-2-yl)methanesulfonamide]
78 | CC(C)C[C@H](CO)Nc1nc(CC(C)c2cnc3c(ccn3C)c2)nc(NS(C)(=O)=O)n1 (stereo partly drawn) [Example 117, N-(4-(((R)-1-Hydroxy-4-methylpentan-2-yl)amino)-6-(2-(1-methyl-1H-pyrrolo[2,3-b]pyridin-5-yl)propyl)-1,3,5-triazin-2-yl)methanesulfonamide]
34 | CC(C)C[C@H](CO)Nc1nc(CC(C)c2cc(F)c(CO)c(F)c2)nc(NS(C)(=O)=O)n1 (stereo partly drawn) [Example 110, N-(4-(2-(3,5-Difluoro-4-(hydroxymethyl)phenyl)propyl)-6-(((R)-1-hydroxy-4-methylpentan-2-yl)amino)-1,3,5-triazin-2-yl)methanesulfonamide]
21 | CC(C)C[C@H](CO)Nc1nc(CC(C)c2cccc(N)c2)nc(NS(C)(=O)=O)n1 (stereo partly drawn) [Example 121, N-(4-(2-(3-Aminophenyl)propyl)-6-(((R)-1-hydroxy-4-methylpentan-2-yl)amino)-1,3,5-triazin-2-yl)methanesulfonamide]
